TGI and GI50 data for 18 compounds are collected here from PubChem BioAssay (NCI).

Molecules are shown by their SMILES. “And” between values parts separate entries of the source, which are not always exact repeats. Equal values may be shown once.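 How tested: cells in 96-well plates exposed to compound for 48 hours at five concentrations. The concentration for 50% growth inhibition is given as GI50. Definition used: TGI = concentration required for complete inhibition of growth.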

Some test systems named below: A498 renal; EKVX NSCLC; HOP-92 NSCLC; MDA-N; NCI-H226 lung; NCI-H23 lung; RPMI-8226 leukemia; SNB-75 CNS; UACC-257 melanoma; UACC-62 melanoma; UO-31 renal.
Experiment in all cases: NCI anticancer screen, dose series, 48 h

Consider `CC(C)[Si](OC1=C(C(=O)N(C)c2cccc(Cl)c2)CCCC1)(C(C)C)C(C)C`, for which the TGI in the test on A498 renal came out at 31.5 µM; in the test on EKVX NSCLC, 30.1 µM; in the test on HOP-92 NSCLC, 25.4 µM; in the test on MDA-N, 34.4 µM; with NCI-H226 lung it was 37.7 µM; in the test on NCI-H23 lung it was 25.3 µM. Further, the TGI with RPMI-8226 leukemia turned out to be 42.4 µM; with SNB-75 CNS, 22.8 µM; with UACC-257 melanoma, 27.8 µM; with UACC-62 melanoma it was 30.8 µM; in the test with UO-31 renal, 27.9 µM.
Turning to `CC1OC(OC2C(O[C@H]3CC[C@@]4(C)C(=CC[C@H]5[C@@H]6C[C@@H]7O[C@]8(CC[C@@H](CO)CO8)[C@@H](C)[C@@H]7[C@@]6(C)CC[C@@H]54)C3)OC(CO)C(O)C2OC2OC(CO)C(O)C(O)C2O)C(O)C(O)C1O` (some centres not stated), the TGI in the test on A498 renal is 3.82 µM; in the test on EKVX NSCLC it was 3.96 µM; with HOP-92 NSCLC, 3.32 µM; with MDA-N it was 3.06 µM; in the test on NCI-H226 lung, 3.79 µM; in the test on NCI-H23 lung, 4.07 µM. In addition, the TGI in the test on RPMI-8226 leukemia is 3.92 µM; with SNB-75 CNS, 3.06 µM; in the test with UACC-257 melanoma, 3.24 µM; in the test with UACC-62 melanoma, 3.23 µM; with UO-31 renal it was 5.46 µM.
As to `CCOC(=O)c1nc2ccc(C(F)(F)F)cc2nc1NCc1cc(OC)c(OC)c(OC)c1`, the TGI with A498 renal was greater than 100 µM; in the test with EKVX NSCLC, greater than 100 µM; in the test with HOP-92 NSCLC, greater than 100 µM; in the test on MDA-N it was 76 µM; in the test on NCI-H226 lung, greater than 100 µM; with NCI-H23 lung, greater than 100 µM. In addition, the TGI in the test on RPMI-8226 leukemia was 48 µM; in the test on SNB-75 CNS, 90.6 µM; in the test with UACC-257 melanoma it was greater than 100 µM; in the test on UACC-62 melanoma, greater than 100 µM; with UO-31 renal it was 99.5 µM.
For `C[N+](C)(C)CC1CCCCCCCCCCC1=O` (configuration not stated), the TGI with A498 renal, in the test on EKVX NSCLC, in the test on HOP-92 NSCLC, in the test on MDA-N, in the test with NCI-H226 lung and in the test with NCI-H23 lung was greater than 100 µM in each case. The TGI with RPMI-8226 leukemia, in the test with SNB-75 CNS, with UACC-257 melanoma, with UACC-62 melanoma and with UO-31 renal was greater than 100 µM throughout.
In the case of `Cc1cc(S(=O)(=O)N=C2N(Cc3ccccc3)CCN2Cc2ccccc2)c(S)cc1Cl`, the TGI in the test with A498 renal, with EKVX NSCLC, with HOP-92 NSCLC, in the test on MDA-N, with NCI-H226 lung and in the test on NCI-H23 lung was greater than 100 µM in each case. Also, the TGI in the test with RPMI-8226 leukemia was greater than 100 µM; with SNB-75 CNS, greater than 100 µM; in the test on UACC-257 melanoma, greater than 100 µM; with UACC-62 melanoma it was greater than 100 µM; with UO-31 renal it was 47.4 µM.
In the case of `COc1ccc(C2OC[C@H]3O[C@@H](OCc4ccccc4)[C@H](O)[C@@H](O)[C@@H]3O2)cc1` (some centres not stated), the TGI in the test with A498 renal, with EKVX NSCLC, with HOP-92 NSCLC, in the test on MDA-N, with NCI-H226 lung and in the test on NCI-H23 lung was greater than 100 µM in each case. Also, the TGI with RPMI-8226 leukemia, in the test on SNB-75 CNS, in the test with UACC-257 melanoma, in the test with UACC-62 melanoma and with UO-31 renal was greater than 100 µM throughout.
Turning to `COc1cc(C(=O)N(Cc2cccnc2)C(=S)N(Cc2cccnc2)C(=O)c2cc(OC)c(OC)c(OC)c2)cc(OC)c1OC`, the TGI in the test with A498 renal was 52.9 µM; in the test with EKVX NSCLC, greater than 100 µM; with HOP-92 NSCLC, 52.2 µM; in the test on MDA-N it was greater than 100 µM; with NCI-H226 lung, greater than 100 µM; in the test on NCI-H23 lung, greater than 100 µM. Moreover, the TGI is greater than 100 µM in the test on RPMI-8226 leukemia; 56.7 µM in the test with SNB-75 CNS; greater than 100 µM in the test on UACC-257 melanoma; 73.9 µM in the test on UACC-62 melanoma; greater than 100 µM in the test on UO-31 renal.
Turning to `CC1(C)NC2C(=O)c3c([nH]c4ccccc34)[C@]3(C)CCC1CC23` (some centres not stated), the TGI in the test with A498 renal, with EKVX NSCLC, in the test on HOP-92 NSCLC, in the test on MDA-N, in the test on NCI-H226 lung and in the test on NCI-H23 lung was greater than 100 µM each time. Further, the TGI with RPMI-8226 leukemia, with SNB-75 CNS, with UACC-257 melanoma, in the test on UACC-62 melanoma and with UO-31 renal was greater than 100 µM each time.
Regarding `CCOc1cn(C2CC(O)C(CO)O2)c(=O)[nH]c1=O` (configuration not stated), the TGI in the test on A498 renal, in the test on EKVX NSCLC, in the test with HOP-92 NSCLC, in the test on MDA-N, with NCI-H226 lung and in the test with NCI-H23 lung was greater than 100 µM in each case. Besides, the TGI in the test with RPMI-8226 leukemia, in the test on SNB-75 CNS, with UACC-257 melanoma, in the test on UACC-62 melanoma and with UO-31 renal was greater than 100 µM in each case.
`CCCCN1C(=O)N(c2ccc(OCC)cc2)C2N(CCCC)C1C(C)(C)C2(C)C` (configuration not stated): the TGI was greater than 100 µM in the test with A498 renal; 50.6 µM in the test with EKVX NSCLC; 85.1 µM in the test with HOP-92 NSCLC; greater than 100 µM with MDA-N; 49.3 µM in the test with NCI-H226 lung; greater than 100 µM with NCI-H23 lung. Besides, the TGI with RPMI-8226 leukemia was 42 µM; with SNB-75 CNS, greater than 100 µM; in the test on UACC-257 melanoma, greater than 100 µM; in the test on UACC-62 melanoma, 50 µM; in the test with UO-31 renal it was 88.9 µM.
In the case of `CON(C)C(=O)CNC(=O)OCC1c2ccccc2-c2ccccc21`, the TGI in the test on A498 renal, in the test with EKVX NSCLC, in the test on HOP-92 NSCLC, in the test with MDA-N, in the test on NCI-H226 lung and with NCI-H23 lung was greater than 100 µM throughout. Further, the TGI in the test with RPMI-8226 leukemia is 91.7 µM; with SNB-75 CNS, greater than 100 µM; with UACC-257 melanoma, greater than 100 µM; in the test with UACC-62 melanoma, greater than 100 µM; in the test with UO-31 renal, greater than 100 µM.
On to `CCOC(=O)/C=C(/C(=O)OCC)n1ccc(=O)n(Cc2cn(COCCOC(C)=O)nn2)c1=O`, for which the TGI with A498 renal was 56.1 µM; in the test with EKVX NSCLC, 30.6 µM; with HOP-92 NSCLC, 5.04 µM; in the test on MDA-N, greater than 100 µM; in the test with NCI-H226 lung it was greater than 100 µM; with NCI-H23 lung, 41.4 µM. Besides, the TGI with RPMI-8226 leukemia is 50.3 µM; with SNB-75 CNS it was greater than 100 µM; in the test on UACC-257 melanoma it was 42.4 µM; with UACC-62 melanoma it was 36.7 µM; in the test with UO-31 renal, 31.9 µM.
In the case of `O=C(N/N=C\c1cccc2c([N+](=O)[O-])cccc12)Nc1ccccc1`, the TGI is 33.4 µM in the test on A498 renal; 35.1 µM in the test with EKVX NSCLC; 30.4 µM in the test with HOP-92 NSCLC; 32.8 µM with MDA-N; 31.2 µM in the test on NCI-H226 lung; 35.2 µM in the test on NCI-H23 lung. In addition, the TGI with RPMI-8226 leukemia was 44 µM; in the test on SNB-75 CNS it was greater than 100 µM; in the test with UACC-257 melanoma, 44.4 µM; in the test with UACC-62 melanoma, 24.4 µM; in the test on UO-31 renal, 26.4 µM.
As to `O=C1C(CN2CCCCC2)CCC1CN1CCCCC1` (configuration not stated), the TGI in the test on A498 renal is 29.2 µM; in the test on EKVX NSCLC, greater than 100 µM; with HOP-92 NSCLC it was 54.6 µM; in the test on MDA-N, 22.2 µM; with NCI-H226 lung it was greater than 100 µM; in the test with NCI-H23 lung it was 53.7 µM. In addition, the TGI in the test with RPMI-8226 leukemia is 28.4 µM; in the test with SNB-75 CNS, greater than 75.6 µM; in the test with UACC-257 melanoma it was 47.1 µM; in the test on UACC-62 melanoma, 32.3 µM; with UO-31 renal it was 22.1 µM.
As to `CSc1ccc2c(cc1=O)[C@@H](NC(=O)c1ccc(N)cc1)CCc1cc(O)c(O)c(O)c1-2`, the TGI was greater than 100 µM in the test on A498 renal; greater than 100 µM with EKVX NSCLC; greater than 100 µM in the test with HOP-92 NSCLC; > 75 µM and 54.1 µM in the test on MDA-N; 40.1 µM and 5.49 µM in the test with NCI-H226 lung; 50.9 µM and 69.7 µM with NCI-H23 lung. Besides, the TGI is > 75 µM and 94.2 µM with RPMI-8226 leukemia; greater than 100 µM in the test on SNB-75 CNS; greater than 100 µM in the test on UACC-257 melanoma; greater than 100 µM in the test on UACC-62 melanoma; 33.8 µM and > 100 µM in the test on UO-31 renal. Moreover, the GI50 in the test on MDA-N is 23.9 µM and 5.99 µM; in the test on NCI-H226 lung, 16.6 µM and 1.75 µM; with NCI-H23 lung, 22.3 µM and 10.4 µM; in the test on UACC-62 melanoma, 21.5 µM and 7.58 µM.
With `COc1ccc2ccccc2c1/C=C/C(=O)c1ccccc1`, the TGI stood at 10.9 µM in the test on A498 renal; 12.1 µM in the test with EKVX NSCLC; 6.97 µM in the test on HOP-92 NSCLC; 13.4 µM with MDA-N; 11.1 µM in the test with NCI-H226 lung; 9.69 µM with NCI-H23 lung. Moreover, the TGI was found to be 4.07 µM in the test on RPMI-8226 leukemia; 4.01 µM in the test on SNB-75 CNS; 16 µM with UACC-257 melanoma; 9.35 µM in the test on UACC-62 melanoma; 9.36 µM in the test on UO-31 renal.
With `O=c1cc(-c2ccc(F)cc2)[nH]c2ncc(Cl)cc12`, the TGI in the test on A498 renal was 53.6 µM; in the test with EKVX NSCLC, greater than 100 µM; in the test with HOP-92 NSCLC it was 65.4 µM; in the test with MDA-N, 7.91 µM; in the test with NCI-H226 lung, greater than 56 µM; in the test with NCI-H23 lung it was greater than 100 µM. For the same compound, the TGI with RPMI-8226 leukemia was 62.4 µM; in the test with SNB-75 CNS it was 48.7 µM; in the test with UACC-257 melanoma, greater than 100 µM; with UACC-62 melanoma, greater than 100 µM; with UO-31 renal, greater than 100 µM.
For the compound `Cc1ccc([N+](=O)[O-])cc1S(=O)(=O)Nc1ccc(C2=NNC(c3ccccc3)C2)cc1` (configuration not stated), the TGI in the test with A498 renal is 68.9 µM; with EKVX NSCLC, greater than 100 µM; in the test with HOP-92 NSCLC, greater than 100 µM; with MDA-N, 92.7 µM; in the test on NCI-H226 lung it was greater than 100 µM; in the test on NCI-H23 lung it was 89.8 µM. In addition, the TGI was greater than 100 µM with RPMI-8226 leukemia; greater than 100 µM in the test on SNB-75 CNS; 40.2 µM with UACC-257 melanoma; 24.3 µM in the test with UACC-62 melanoma; 71.5 µM in the test with UO-31 renal.
